ChEMBL document CHEMBL5303766, “Data for DCP probe FHT-2344” (2022)

Experiments:
[1] = target: SRSF protein kinase 3 (Homo sapiens) (UniProt Q9UPE1); assay: MSSK1 SGC Tm panel (DSF); details: for ΔTm: Compound concentration 10.0 uM
[2] = target: Mitogen-activated protein kinase 1 (Homo sapiens) (UniProt P28482); assay: MAPK1 SGC Tm panel (DSF); details: for ΔTm: Compound concentration 10.0 uM
[3] = target: T1, Mitogen-activated protein kinase kinase kinase 5 (Homo sapiens) (UniProt Q99683); assay: MAP3K5 SGC Tm panel (DSF); details: for ΔTm: Compound concentration 10.0 uM
T1 sequence (whole entry): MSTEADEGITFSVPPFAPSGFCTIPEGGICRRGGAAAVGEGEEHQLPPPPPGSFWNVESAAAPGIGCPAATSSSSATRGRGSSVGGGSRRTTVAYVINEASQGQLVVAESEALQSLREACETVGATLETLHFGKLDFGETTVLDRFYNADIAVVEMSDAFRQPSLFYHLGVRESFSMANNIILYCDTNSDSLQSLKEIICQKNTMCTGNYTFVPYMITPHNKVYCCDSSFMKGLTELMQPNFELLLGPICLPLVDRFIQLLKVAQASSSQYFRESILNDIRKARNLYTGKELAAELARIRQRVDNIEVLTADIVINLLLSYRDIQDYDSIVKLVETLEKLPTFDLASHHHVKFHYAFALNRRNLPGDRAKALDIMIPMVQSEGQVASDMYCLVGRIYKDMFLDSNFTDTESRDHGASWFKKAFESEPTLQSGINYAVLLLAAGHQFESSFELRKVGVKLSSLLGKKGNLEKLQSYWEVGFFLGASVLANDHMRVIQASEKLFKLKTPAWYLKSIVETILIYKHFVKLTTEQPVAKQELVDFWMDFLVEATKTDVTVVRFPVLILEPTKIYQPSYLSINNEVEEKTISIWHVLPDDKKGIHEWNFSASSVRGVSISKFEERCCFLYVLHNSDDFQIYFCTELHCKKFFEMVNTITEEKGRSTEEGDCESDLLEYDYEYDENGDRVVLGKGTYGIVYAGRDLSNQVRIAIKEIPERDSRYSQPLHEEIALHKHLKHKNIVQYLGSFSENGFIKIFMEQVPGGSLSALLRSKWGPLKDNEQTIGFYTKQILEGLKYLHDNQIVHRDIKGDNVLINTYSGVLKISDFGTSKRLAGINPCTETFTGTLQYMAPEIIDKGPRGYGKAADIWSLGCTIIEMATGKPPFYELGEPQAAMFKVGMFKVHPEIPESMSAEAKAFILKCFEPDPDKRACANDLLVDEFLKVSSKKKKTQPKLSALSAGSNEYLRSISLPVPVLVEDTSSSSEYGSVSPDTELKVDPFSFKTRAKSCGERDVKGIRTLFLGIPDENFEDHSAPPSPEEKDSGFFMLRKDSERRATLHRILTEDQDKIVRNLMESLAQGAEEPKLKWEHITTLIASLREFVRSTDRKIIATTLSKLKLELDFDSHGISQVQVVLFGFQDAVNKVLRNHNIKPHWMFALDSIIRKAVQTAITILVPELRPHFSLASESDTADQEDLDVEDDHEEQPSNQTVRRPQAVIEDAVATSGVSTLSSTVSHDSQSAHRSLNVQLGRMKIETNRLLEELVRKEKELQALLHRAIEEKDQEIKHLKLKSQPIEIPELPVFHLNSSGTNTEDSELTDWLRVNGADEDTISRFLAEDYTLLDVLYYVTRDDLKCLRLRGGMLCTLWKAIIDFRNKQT

[4] = target: T2, Serine/threonine-protein kinase Nek1 (Homo sapiens) (UniProt Q96PY6); assay: NEK1 SGC Tm panel (DSF); details: for ΔTm: Compound concentration 10.0 uM
T2 sequence (whole entry): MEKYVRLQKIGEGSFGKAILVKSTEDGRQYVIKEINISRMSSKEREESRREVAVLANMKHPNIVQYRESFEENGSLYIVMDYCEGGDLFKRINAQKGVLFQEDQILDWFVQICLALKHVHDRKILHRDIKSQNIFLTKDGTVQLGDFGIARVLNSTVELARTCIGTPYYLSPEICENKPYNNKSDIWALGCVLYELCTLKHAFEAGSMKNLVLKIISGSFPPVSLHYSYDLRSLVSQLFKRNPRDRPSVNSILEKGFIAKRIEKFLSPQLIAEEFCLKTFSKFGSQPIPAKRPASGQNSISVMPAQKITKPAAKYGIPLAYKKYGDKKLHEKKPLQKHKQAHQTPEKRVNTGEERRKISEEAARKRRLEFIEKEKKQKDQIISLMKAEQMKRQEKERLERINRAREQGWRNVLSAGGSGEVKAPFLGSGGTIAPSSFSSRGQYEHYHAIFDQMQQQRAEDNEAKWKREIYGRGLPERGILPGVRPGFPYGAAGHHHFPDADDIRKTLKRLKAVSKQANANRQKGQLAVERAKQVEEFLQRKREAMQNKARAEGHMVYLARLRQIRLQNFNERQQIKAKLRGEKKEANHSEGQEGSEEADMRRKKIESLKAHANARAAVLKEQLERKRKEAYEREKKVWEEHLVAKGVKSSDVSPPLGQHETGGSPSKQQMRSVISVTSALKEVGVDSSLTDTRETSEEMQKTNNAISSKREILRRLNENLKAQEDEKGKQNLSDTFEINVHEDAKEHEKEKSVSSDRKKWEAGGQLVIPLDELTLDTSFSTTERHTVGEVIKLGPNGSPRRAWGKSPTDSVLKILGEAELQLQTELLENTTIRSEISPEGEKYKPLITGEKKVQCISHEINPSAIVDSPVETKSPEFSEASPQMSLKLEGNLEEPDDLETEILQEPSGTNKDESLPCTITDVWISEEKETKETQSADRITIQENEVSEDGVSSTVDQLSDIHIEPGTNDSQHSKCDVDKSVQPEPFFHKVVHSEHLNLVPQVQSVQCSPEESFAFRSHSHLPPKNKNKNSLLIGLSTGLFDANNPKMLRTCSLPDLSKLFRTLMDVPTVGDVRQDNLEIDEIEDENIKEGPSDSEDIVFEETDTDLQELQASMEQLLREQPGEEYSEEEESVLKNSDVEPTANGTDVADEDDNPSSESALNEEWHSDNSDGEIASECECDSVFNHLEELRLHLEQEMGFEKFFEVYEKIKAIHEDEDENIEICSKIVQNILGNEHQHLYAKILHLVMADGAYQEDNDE

[5] = target: Muscarinic acetylcholine receptor M4 (Homo sapiens) (UniProt P08173); details: Compound concentration 10.0 uM
[6] = target: Cyclin-dependent kinase 16 (Homo sapiens) (UniProt Q00536); assay: PCTK1 SGC Tm panel (DSF); details: for ΔTm: Compound concentration 10.0 uM
[7] = target: Cyclin-dependent kinase 2 (Homo sapiens) (UniProt P24941); assay: CDK2 SGC Tm panel (DSF); details: for ΔTm: Compound concentration 10.0 uM
[8] = target: Kappa-type opioid receptor (Homo sapiens) (UniProt P41145); details: Compound concentration 10.0 uM
Sequence of Kappa-type opioid receptor (Homo sapiens) (P41145 whole entry): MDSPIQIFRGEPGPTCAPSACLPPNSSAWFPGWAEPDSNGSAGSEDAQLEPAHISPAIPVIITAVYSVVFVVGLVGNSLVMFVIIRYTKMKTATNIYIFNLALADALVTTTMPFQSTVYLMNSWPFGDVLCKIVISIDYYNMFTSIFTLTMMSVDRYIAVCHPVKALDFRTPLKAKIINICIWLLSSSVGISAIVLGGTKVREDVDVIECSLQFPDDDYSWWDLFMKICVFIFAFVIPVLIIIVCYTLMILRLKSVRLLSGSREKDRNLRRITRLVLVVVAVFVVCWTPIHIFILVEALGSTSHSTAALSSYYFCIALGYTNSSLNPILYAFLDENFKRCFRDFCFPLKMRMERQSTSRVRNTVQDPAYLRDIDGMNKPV

Sequence of SRSF protein kinase 3 (Homo sapiens) (Q9UPE1 whole entry): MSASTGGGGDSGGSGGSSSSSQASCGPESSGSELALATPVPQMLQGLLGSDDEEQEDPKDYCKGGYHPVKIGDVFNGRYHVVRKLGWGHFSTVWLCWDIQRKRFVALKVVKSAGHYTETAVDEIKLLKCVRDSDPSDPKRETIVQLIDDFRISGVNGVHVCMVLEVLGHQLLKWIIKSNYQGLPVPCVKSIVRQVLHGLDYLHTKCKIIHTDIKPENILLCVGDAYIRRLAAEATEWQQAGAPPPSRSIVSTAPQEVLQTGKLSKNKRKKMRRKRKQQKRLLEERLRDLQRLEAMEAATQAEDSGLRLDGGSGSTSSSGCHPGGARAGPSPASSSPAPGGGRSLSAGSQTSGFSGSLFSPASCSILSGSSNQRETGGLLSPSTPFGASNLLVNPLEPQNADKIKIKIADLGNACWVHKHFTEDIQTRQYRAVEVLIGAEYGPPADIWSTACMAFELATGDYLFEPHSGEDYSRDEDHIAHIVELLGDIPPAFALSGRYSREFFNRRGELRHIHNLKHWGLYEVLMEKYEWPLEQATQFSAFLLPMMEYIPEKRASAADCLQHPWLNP
Sequence of Cyclin-dependent kinase 16 (Homo sapiens) (Q00536 whole entry): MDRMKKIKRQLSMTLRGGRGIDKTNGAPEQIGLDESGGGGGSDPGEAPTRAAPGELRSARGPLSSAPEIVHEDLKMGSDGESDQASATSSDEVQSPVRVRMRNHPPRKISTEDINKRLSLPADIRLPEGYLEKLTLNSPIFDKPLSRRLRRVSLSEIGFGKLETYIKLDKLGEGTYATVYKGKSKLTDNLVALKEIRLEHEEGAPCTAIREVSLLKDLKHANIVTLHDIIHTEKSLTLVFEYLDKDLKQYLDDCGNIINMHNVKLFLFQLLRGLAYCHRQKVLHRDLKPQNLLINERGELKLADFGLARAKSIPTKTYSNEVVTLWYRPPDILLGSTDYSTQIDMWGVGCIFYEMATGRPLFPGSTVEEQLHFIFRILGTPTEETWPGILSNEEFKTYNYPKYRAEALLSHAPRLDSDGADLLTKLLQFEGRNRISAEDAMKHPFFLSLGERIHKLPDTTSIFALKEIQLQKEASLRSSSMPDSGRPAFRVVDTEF
Sequence of Mitogen-activated protein kinase 1 (Homo sapiens) (P28482 whole entry): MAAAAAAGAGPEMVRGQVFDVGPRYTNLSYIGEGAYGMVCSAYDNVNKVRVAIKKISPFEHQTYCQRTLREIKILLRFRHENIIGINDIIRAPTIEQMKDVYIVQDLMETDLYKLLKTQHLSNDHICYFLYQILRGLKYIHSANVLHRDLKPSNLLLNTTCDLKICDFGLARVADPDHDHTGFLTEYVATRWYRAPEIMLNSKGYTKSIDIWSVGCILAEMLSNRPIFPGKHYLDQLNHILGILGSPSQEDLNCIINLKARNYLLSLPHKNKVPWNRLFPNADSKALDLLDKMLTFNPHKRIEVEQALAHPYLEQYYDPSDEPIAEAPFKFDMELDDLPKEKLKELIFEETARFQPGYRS
Sequence of Muscarinic acetylcholine receptor M4 (Homo sapiens) (P08173 whole entry): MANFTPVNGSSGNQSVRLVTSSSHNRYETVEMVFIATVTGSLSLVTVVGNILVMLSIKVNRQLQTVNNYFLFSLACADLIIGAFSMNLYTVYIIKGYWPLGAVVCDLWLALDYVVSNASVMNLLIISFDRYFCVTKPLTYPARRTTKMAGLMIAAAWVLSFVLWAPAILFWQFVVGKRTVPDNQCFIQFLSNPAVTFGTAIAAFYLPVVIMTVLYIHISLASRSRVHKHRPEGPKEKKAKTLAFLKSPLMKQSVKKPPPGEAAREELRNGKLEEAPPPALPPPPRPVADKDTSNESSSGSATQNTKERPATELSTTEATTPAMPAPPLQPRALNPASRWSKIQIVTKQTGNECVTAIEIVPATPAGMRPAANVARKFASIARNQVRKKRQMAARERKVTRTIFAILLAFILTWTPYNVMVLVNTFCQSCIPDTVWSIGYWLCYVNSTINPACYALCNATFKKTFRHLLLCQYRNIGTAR

SMILES | delta Tm Staurosporine positive control [1] | ΔTm [1] | delta Tm Staurosporine positive control [2] | ΔTm [2] | delta Tm Staurosporine positive control [3] | ΔTm [3] | delta Tm Staurosporine positive control [4] | ΔTm [4] | inhibition [5] | delta Tm Staurosporine positive control [6] | ΔTm [6] | delta Tm Staurosporine positive control [7] | ΔTm [7] | inhibition [8]
COC[C@H](NC(=O)c1ccn(S(C)(=O)=O)c1)C(=O)Nc1nc(-c2cccc(-c3ccn(C)n3)c2)cs1 | 3.67 | 0.376 | 1.98 | 0.812 | 18.1 | 1.14 | -0.578 | -0.226 | 4.13% | 7.03 | -1.23 | 15.5 | 0.601 | 10.7%
C[C@H](NC(=O)c1cn(C2(C#N)CC2)cn1)C(=O)Nc1nc(-c2cccc(-c3ccn(C)n3)c2)cs1 | 3.67 | 0.0986 | 1.98 | 0.442 | 18.1 | 1.17 | -0.578 | -0.482 | 7.09% | 7.03 | -1.44 | 15.5 | 0.352 | 4.84%
